Earlier results, collected in patent US4970081A, “Controlled-release, low-dose aspirin formulation and method of treating vascular occlusive disease therewith” (Sterling Drug Inc., priority 1989, dated 1990).

What was measured:
[1] = prior art dosage forms
[2] = tested on: endothelial cyclooxygenase; details: at the doses given in most clinical trials
[3] = tested on: cyclooxygenase in platelets; details: by acetylating cyclooxygenase in platelets
prostacyclin (PC) = details: 1 mg every 30 minutes for 10 hours
thromboxane B2 (TX) = details: 1 mg every 30 minutes for 10 hours; at 10 hours
[4] = tested on: vascular occlusive events; details: oral aspirin, patients

SMILES	release rate [1] [mg per hour]	effect on endothelial cyclooxygenase [2]	effect on platelet adhesiveness [3]	urinary PC (prostacyclin (PC))	decrease in serum TX (thromboxane B2 (TX)) [%]	protection from vascular occlusive events [4]
Nc1ccc(S(N)(=O)=O)cc1 [Sulfanilamide]	4.5					
CC(=O)Oc1ccccc1C(=O)O [aspirin]		inhibits endothelial cyclooxygenase	significantly decreases platelet adhesiveness	unaltered	66	statistically significant protection
